From US5955462A, “Anti-neurogenic inflammatory compounds and compositions and methods of use thereof” (Harbor Branch Oceanographic Institution, Inc., priority 1997, dated 1999)
Where “and” joins values, the source holds several entries; their conditions need not be identical. Equal values may be shown once.

Key:
mouse ear [1] = assay: Inhibition of resiniferatoxin (RTX)-induced edema in a mouse ear model; assay type: in vivo; conditions: for ED50 for inhibition of RTX-induced edema: dose response curve
Protocol: A. Inhibition of Capsaicin-Induced Inflammation (Edema) of the Mouse Ear. Induction of mouse ear edema was based on known methods. Inoue, H., Nagata, N., and Koshihara, Y. (1993). Profile of capsaicin-induced mouse ear oedema as neurogenic inflammatory model: comparison with arachidonic acid-induced ear oedema. Br. J. Pharm 110:1614-20. […] CAP alone (250 μg/ear) or in combination with various dilutions of test compound are applied to both sides of the left ears (5 mice per treatment group) and acetone is applied to all right ears. After a 30 minute incubation, the mice are sacrificed, the ears removed, and bores taken and weighed. Edema is measured by subtracting the weight of the right ear (acetone control) from the weight of the left ear (treated).
B. Inhibition of Resiniferatoxin (RTX)-induced edema in a mouse ear model. Topsentin was also tested for its inhibitory activity against inflammation induced by the neurogenic inflammation producing compound, resiniferatoxin (RTX). Using a mouse ear model, the experimental procedure is substantially the same as that described for the capsaicin-induced inflammation assay (see section A of this Example, above).

mouse ear [2] = assay: Inhibition of capsaicin-induced inflammation (edema) of the mouse ear; assay type: in vivo; conditions: for potency in inhibiting neurogenic inflammation compared with capsazepine: capsaicin-induced edema in mouse ears
From the text: The assay employing mice (e.g., administration to the ear of the mouse) is routinely used by those skilled in the art and is accepted as indicative of anti-inflammatory activity in humans. This assay is described below.
A. Inhibition of Capsaicin-Induced Inflammation (Edema) of the Mouse Ear. Induction of mouse ear edema was based on known methods. Inoue, H., Nagata, N., and Koshihara, Y. (1993). Profile of capsaicin-induced mouse ear oedema as neurogenic inflammatory model: comparison with arachidonic acid-induced ear oedema. Br. J. Pharm 110:1614-20. Compounds to be tested for anti-neurogenic inflammatory activity are topically applied in acetone to the ears of mice in a solution that includes the edema-causing irritant, capsaicin (CAP). CAP alone (250 μg/ear) or in combination with various dilutions of test compound are applied to both sides of the left ears (5 mice per treatment group) and acetone is applied to all right ears. After a 30 minute incubation, the mice are sacrificed, the ears removed, and bores taken and weighed. Edema is measured by subtracting the weight of the right ear (acetone control) from the weight of the left ear (treated). Results are recorded as % decrease (inhibition) or % increase (potentiation) in edema relative to the control group edema.

[3] = Mus musculus, topical, 50 μg/ear, read-out: % Inh. of Edema
[4] = 3.12 μg/ear, listed as hamacanthin b
[5] = 50 μg/ear, listed as hamacanthin b
[6] = Mus musculus, topical, 25 μg/ear, read-out: % Inh. of Edema
[7] = Mus musculus, topical, 3.12 μg/ear, read-out: % Inh. of Edema
[8] = Mus musculus, topical, 6.25 μg/ear, read-out: % Inh. of Edema
[9] = Mus musculus, topical, 12.5 μg/ear, read-out: % Inh. of Edema

SMILES | Mean difference (mouse ear [1]; 50 μg/ear) [mg] | inhibition in vivo at 50 µg/ear (mouse ear [1]; [3]) [%] | Mean difference (mouse ear [1]; 3.12 μg/ear) [mg] | Mean difference (mouse ear [1]; 6.25 μg/ear) [mg] | Mean difference (mouse ear [1]; 12.5 μg/ear) [mg] | Mean difference (mouse ear [1]; 25 μg/ear) [mg] | inhibition of RTX-induced edema in certain animals (mouse ear [1]; 50 μg on the ear) [%] | ED50 for inhibition of RTX-induced edema (mouse ear [1]) | inhibition in vivo at 25 µg/ear (mouse ear [1]; [6]) [%] | other results
Brc1ccc2c(-c3nc(-c4c[nH]c5ccccc45)c[nH]3)c[nH]c2c1 [Nortopsentin B] | 0.9 | 91.2 | – | – | – | – | – | – | – | –
O=C1NC[C@H](c2c[nH]c3cc(Br)ccc23)N=C1c1c[nH]c2cc(Br)ccc12 [Hamacanthin B] | 0.4 | – | 3.9 | 6.7 | 4.9 | 2.3 | ~100 | about 1.5 μg/ear | – | % Inh. of Edema (mouse ear [1]; 3.12 μg/ear, listed as Hamacanthin b): 68%; % Inh. of Edema (mouse ear [1]; [4]): 68.8%; Difference (mg), left minus right ear, individual animal (mouse ear [1]; [4]): 4.4 mg and 6.9 mg and 1.5 mg and 1.2 mg and 5.3 mg; % Inh. of Edema (mouse ear [1]; 6.25 μg/ear): 46.0%; Difference (mg), left minus right ear, individual animal (mouse ear [1]; 6.25 μg/ear): 6.9 mg and 7.4 mg and 7.0 mg and 8.4 mg and 5.4 mg; % Inh. of Edema (mouse ear [1]; 12.5 μg/ear): 86.8%; Difference (mg), left minus right ear, individual animal (mouse ear [1]; 12.5 μg/ear): 4.6 mg and 4.1 mg and 6.1 mg and 8.3 mg and 1.4 mg; % Inh. of Edema (mouse ear [1]; 25 μg/ear): 81.6%; Difference (mg), left minus right ear, individual animal (mouse ear [1]; 25 μg/ear): 2.3 mg and 4.2 mg and 2.0 mg and 1.0 mg and 1.9 mg; % Inh. of Edema (mouse ear [1]; 50 μg/ear, listed as Hamacanthin b): about 97%; % Inh. of Edema (mouse ear [1]; [5]): 96.9%; Difference (mg), left minus right ear, individual animal (mouse ear [1]; [5]): 0.2 mg and 0.0 mg and 1.4 mg and 0.1 mg
O=C(C1=NC(c2c[nH]c3cc(Br)ccc23)CN1)c1c[nH]c2ccccc12 (centres unmarked) [4,5-dihydro-6"-deoxybromotopsentin] | 3.3 | 87.1 | – | – | – | – | – | – | – | –
O=C(c1nc(-c2c[nH]c3cc(Br)ccc23)c[nH]1)c1c[nH]c2cc(O)ccc12 [Bromotopsentin] | – | – | – | – | – | – | – | – | – | % Inhibition of capsaicin-induced edema (mouse ear [2]; 500 μg/ear): 79%; potency in inhibiting neurogenic inflammation compared with capsazepine (mouse ear [2]): greater potency in inhibiting neurogenic inflammation than capsazepine
Oc1cc2c(cc1O)CN(C(=S)NCCc1ccc(Cl)cc1)CCC2 [Capsazepine, reference compound] | – | – | – | – | – | – | – | – | – | % Inhibition of capsaicin-induced edema (mouse ear [2]; 500 μg/ear): 33%; % Inhibition of capsaicin-induced edema (mouse ear [2]; 1000 μg/ear): 52%; % Inhibition of capsaicin-induced edema (mouse ear [2]; 1500 μg/ear): 76%
O=C(c1nc(-c2c[nH]c3ccccc23)c[nH]1)c1c[nH]c2cc(O)ccc12 [Topsentin] | 2.6 | 82 | – | – | – | 8.3 | – | about 20 μg/ear | 41 | % Inhibition of capsaicin-induced edema (mouse ear [2]; 100 μg/ear): 28%; Inflammation (mg) ± SEM (mouse ear [2]; 100 μg/ear topical, capsaicin 250 μg/ear): 4.8 ± 1.0 mg; % Inhibition of capsaicin-induced edema (mouse ear [2]; 100 μg/ear, listed as topsentin): more than 25%; % Inhibition of capsaicin-induced edema (mouse ear [2]; 250 μg/ear): 66%; % Inhibition of capsaicin-induced edema (mouse ear [2]; 500 μg/ear): 74%; % Inhibition of capsaicin-induced edema (mouse ear [2]; 1000 μg/ear): 90%; potency in inhibiting neurogenic inflammation compared with capsazepine (mouse ear [2]): greater potency in inhibiting neurogenic inflammation than capsazepine; ED50 in inhibition of capsaicin-induced inflammation (mouse ear [2]; dose-response curve, FIG. 1): about 200 μg/ear; percent inhibition of edema (up to) (mouse ear [2]; final concentration of about 1000 μM): approximately 90%; Mean difference (mouse ear [1]; 5 μg/ear): 12.3 mg; Mean difference (mouse ear [1]; 10 μg/ear): 9.6 mg; inhibition of RTX-induced edema in certain animals (mouse ear [1]; 100 μg on the ear): about 100%; Mean difference (mouse ear [1]; 100 μg/ear): 1.3 mg; inhibition in vivo at 5 µg/ear (mouse ear [1]; Mus musculus, topical, 5 μg/ear, read-out: % Inh. of Edema): ~12%; inhibition in vivo at 10 µg/ear (mouse ear [1]; Mus musculus, topical, 10 μg/ear, read-out: % Inh. of Edema): 31%; inhibition in vivo at 100 µg/ear (mouse ear [1]; Mus musculus, topical, 100 μg/ear, read-out: % Inh. of Edema): ~91%
CC(c1c[nH]c(N)n1)c1ccc(O)c2[nH]cc(-c3cnc(-c4c[nH]c5cc(Br)ccc45)c(=O)[nH]3)c12 (centres unmarked) [Dragmacidin d, Dragmacidin-d] | 1.4 | 89.6 | – | – | – | – | – | – | – | –
Brc1ccc2c(-c3c[nH]c(-c4c[nH]c5ccccc45)n3)c[nH]c2c1 [Nortopsentin C] | 0.2 | ~98 | 9.3 | 5.4 | 1.3 | 1.0 | ~100 | about 8 μg/ear | 90.2 | inhibition in vivo at 3.12 µg/ear (mouse ear [1]; [7]): 5.9%; inhibition in vivo at 6.25 µg/ear (mouse ear [1]; [8]): 45%; inhibition in vivo at 12.5 µg/ear (mouse ear [1]; [9]): 86.8%
CS(=O)(=O)Oc1ccc2c(C(=O)c3nc(-c4c[nH]c5cc(Br)ccc45)c[nH]3)c[nH]c2c1 [o-mesylbromotopsentin, bromotopsentin-O-mesylate] | 3 | 70.3 | 9.2 | 7.2 | 8.3 | 2.3 | 70 | about 17 μg/ear | 77.6 | inhibition in vivo at 3.12 µg/ear (mouse ear [1]; [7]): 8.9%; inhibition in vivo at 6.25 µg/ear (mouse ear [1]; [8]): 28%; inhibition in vivo at 12.5 µg/ear (mouse ear [1]; [9]): 86.8%
Brc1ccc2c(-c3c[nH]c(-c4c[nH]c5cc(Br)ccc45)n3)c[nH]c2c1 [Nortopsentin A] | -0.4 | 100 | – | – | – | – | – | – | – | –
NCC(c1c[nH]c2cc(Br)ccc12)c1c[nH]c2cc(Br)ccc12 [2,2-bis(6-bromoindol-3-yl)ethyl amine] | 0.1 | ~99 | 11.9 | 13.2 | 5.8 | 2.1 | ~100 | about 18.1 μg/ear | 81.5 | inhibition in vivo at 3.12 µg/ear (mouse ear [1]; [7]): 6.8%; inhibition in vivo at 6.25 µg/ear (mouse ear [1]; [8]): 18%; inhibition in vivo at 12.5 µg/ear (mouse ear [1]; [9]): 86.8%
